Measured values published in patent publication US20110054216A1, “NOVEL PROCESS FOR MAKING (2R)-(3-AMINO-2-FLUOROPROPYL)PHOSPHINIC ACID FORM A” (priority 2007, published 2011).

Test: isoelectric point of the zwitterion
Format: physicochemical
Conditions: pH at which it may be crystallised
Procedure: (2R)-(3-amino-2-fluoropropyl)phosphinic acid is a zwitterion, that may be crystallised at the isoelectric point, in this case approximately at a pH of 5.3. As the reaction is performed during acidic conditions, the protonated species of (2R)-(3-amino-2-fluoropropyl)phosphinic acid is formed. After completed reaction, the pH is adjusted to 5-6 by addition of a base in order to isolate (2R)-(3-amino-2-fluoropropyl)phosphinic acid crude as the zwitterion. The solution of (2R)-(3-amino-2-fluoropropyl)phosphinic acid works as a buffer solution and the amount of base added to reach the set pH-interval (5-6) is can be varied in the range of from 1.8-2.8 equivalents.

NC[C@@H](F)C[PH](=O)O [(2R)-(3-amino-2-fluoropropyl)phosphinic acid]
isoelectric point (pH): ~5.3
